Laboratory results reported in ChEMBL document CHEMBL1143097, “Allosteric inhibitors of Akt1 and Akt2: a naphthyridinone with efficacy in an A2780 tumor xenograft model” (Bioorg Med Chem Lett, 2008).
Activity calls are given as the source filed them. The calls are words filed in the database; no cut-off is given here.

Assays:
Mus musculus [1] = experiment: Inhibition of Akt2 in mouse lung at 50 mg/kg, ip administered three times a day after 10 hrs by IP kinase assay; type: functional; design: scale not given: the % may be the effect or the level left; conditions: route intraperitoneal
Mus musculus [2] = experiment: Inhibition of Akt2 in mouse lung at 50 mg/kg, ip administered three times a day after 16 hrs by IP kinase assay; type: functional; design: scale not given: the % may be the effect or the level left; conditions: route intraperitoneal
Mus musculus [3] = experiment: Inhibition of Akt2 in mouse lung at 50 mg/kg, ip administered three times a day after 24 hrs by IP kinase assay; type: functional; design: scale not given: the % may be the effect or the level left; conditions: route intraperitoneal
A2780 = experiment: Antitumor activity in human A2780 cells xenografted mouse assessed as decrease in tumor weight at 50 mg/kg, sc administered three times a day twice a week for five cycles; type: functional, organism-based; design: dose 50 mg/kg
Mus musculus [4] = experiment: Inhibition of AKT1 in A2780 cells xenografted mouse lung tissue at 50 mg/kg, twice daily after 2 hrs by IP kinase assay; type: functional; conditions: route intraperitoneal
Mus musculus [5] = experiment: Inhibition of AKT2 in A2780 cells xenografted mouse lung tissue at 50 mg/kg, twice daily after 2 hrs by IP kinase assay; type: functional; conditions: route intraperitoneal
Mus musculus [6] = experiment: Inhibition of AKT1 in A2780 cells xenografted mouse tumor tissue at 50 mg/kg, twice daily after 2 hrs by IP kinase assay; type: functional; conditions: route intraperitoneal
Mus musculus [7] = experiment: Inhibition of AKT2 in A2780 cells xenografted mouse tumor tissue at 50 mg/kg, twice daily after 2 hrs by IP kinase assay; type: functional; conditions: route intraperitoneal
[8] = target: T1, RAC-alpha serine/threonine-protein kinase (Homo sapiens, UniProt P31749); experiment: Inhibition of Akt1
[9] = target: T2, RAC-beta serine/threonine-protein kinase (Homo sapiens, UniProt P31751); experiment: Inhibition of Akt2
[10] = target: T1, RAC-alpha serine/threonine-protein kinase; experiment: Inhibition of Akt1 by cell-based assay
[11] = target: T2, RAC-beta serine/threonine-protein kinase; experiment: Inhibition of Akt2 by cell-based assay
[12] = target: RAC-gamma serine/threonine-protein kinase (Homo sapiens, UniProt Q9Y243); experiment: Inhibition of Akt3
[13] = Inhibition of PKA
[14] = Inhibition of PKC
[15] = Inhibition of SGK
[16] = target: Voltage-gated inwardly rectifying potassium channel KCNH2 (Homo sapiens, UniProt Q12809); experiment: Inhibition of human ERG
[17] = Partition coefficient, log P of the compound; type: physicochemical; conditions: octanol/water
[18] = Clearance in rat; type: ADME, organism-based; conditions: in vivo
[19] = Half life in rat; type: ADME, organism-based; conditions: in vivo
[20] = Drug concentration in mouse blood at 50 mg/kg, ip administered three times a day after 10 hrs; type: ADME, organism-based; design: dose 50 mg/kg, route intraperitoneal; conditions: whole blood, read-out: Drug uptake
[21] = Drug concentration in mouse blood at 50 mg/kg, ip administered three times a day after 16 hrs; type: ADME, organism-based; design: dose 50 mg/kg, route intraperitoneal; conditions: whole blood, read-out: Drug uptake
[22] = Drug concentration in mouse blood at 50 mg/kg, ip administered three times a day after 24 hrs; type: ADME, organism-based; design: dose 50 mg/kg, route intraperitoneal; conditions: whole blood, read-out: Drug uptake
Mus musculus [23] = experiment: Inhibition of Akt1 in mouse lung at 50 mg/kg, ip administered three times a day after 10 hrs by IP kinase assay; type: functional; design: scale not given: the % may be the effect or the level left; conditions: route intraperitoneal
Mus musculus [24] = experiment: Inhibition of Akt1 in mouse lung at 50 mg/kg, ip administered three times a day after 16 hrs by IP kinase assay; type: functional; design: scale not given: the % may be the effect or the level left; conditions: route intraperitoneal
Mus musculus [25] = experiment: Inhibition of Akt1 in mouse lung at 50 mg/kg, ip administered three times a day after 24 hrs by IP kinase assay; type: functional; design: scale not given: the % may be the effect or the level left; conditions: route intraperitoneal
Homo sapiens = species on record: Homo sapiens; experiment: Protein binding in human plasma; conditions: read-out: PB (converted)
[26] = Distribution coefficient, log D of the compound; type: physicochemical; conditions: octanol/water

T1 sequence (P31749 whole entry): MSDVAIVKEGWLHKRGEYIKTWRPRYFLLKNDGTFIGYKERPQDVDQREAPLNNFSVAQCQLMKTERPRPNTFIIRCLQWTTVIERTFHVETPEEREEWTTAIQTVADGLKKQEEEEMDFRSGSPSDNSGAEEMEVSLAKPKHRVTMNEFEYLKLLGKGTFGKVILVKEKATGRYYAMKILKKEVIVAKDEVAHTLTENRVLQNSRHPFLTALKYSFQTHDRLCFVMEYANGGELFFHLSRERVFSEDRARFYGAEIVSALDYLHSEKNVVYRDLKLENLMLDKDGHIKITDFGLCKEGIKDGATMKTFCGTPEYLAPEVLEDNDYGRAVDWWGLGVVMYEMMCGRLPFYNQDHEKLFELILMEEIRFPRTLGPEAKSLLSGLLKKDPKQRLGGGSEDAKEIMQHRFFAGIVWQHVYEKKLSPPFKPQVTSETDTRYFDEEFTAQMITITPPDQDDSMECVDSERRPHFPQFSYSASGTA
T2 sequence (P31751 whole entry): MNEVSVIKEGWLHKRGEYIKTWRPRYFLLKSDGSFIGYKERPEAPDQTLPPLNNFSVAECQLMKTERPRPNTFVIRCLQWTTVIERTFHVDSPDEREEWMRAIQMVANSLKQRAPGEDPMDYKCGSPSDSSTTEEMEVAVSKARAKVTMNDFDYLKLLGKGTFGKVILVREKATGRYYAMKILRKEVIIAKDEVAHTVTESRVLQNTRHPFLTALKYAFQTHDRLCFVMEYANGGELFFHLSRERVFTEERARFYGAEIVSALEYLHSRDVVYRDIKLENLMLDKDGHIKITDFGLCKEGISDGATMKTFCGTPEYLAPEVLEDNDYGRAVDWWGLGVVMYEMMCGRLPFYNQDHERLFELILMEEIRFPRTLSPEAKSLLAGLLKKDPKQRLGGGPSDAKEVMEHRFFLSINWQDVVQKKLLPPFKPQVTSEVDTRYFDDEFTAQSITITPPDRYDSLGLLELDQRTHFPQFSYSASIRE
RAC-gamma serine/threonine-protein kinase, sequence (Q9Y243 whole entry): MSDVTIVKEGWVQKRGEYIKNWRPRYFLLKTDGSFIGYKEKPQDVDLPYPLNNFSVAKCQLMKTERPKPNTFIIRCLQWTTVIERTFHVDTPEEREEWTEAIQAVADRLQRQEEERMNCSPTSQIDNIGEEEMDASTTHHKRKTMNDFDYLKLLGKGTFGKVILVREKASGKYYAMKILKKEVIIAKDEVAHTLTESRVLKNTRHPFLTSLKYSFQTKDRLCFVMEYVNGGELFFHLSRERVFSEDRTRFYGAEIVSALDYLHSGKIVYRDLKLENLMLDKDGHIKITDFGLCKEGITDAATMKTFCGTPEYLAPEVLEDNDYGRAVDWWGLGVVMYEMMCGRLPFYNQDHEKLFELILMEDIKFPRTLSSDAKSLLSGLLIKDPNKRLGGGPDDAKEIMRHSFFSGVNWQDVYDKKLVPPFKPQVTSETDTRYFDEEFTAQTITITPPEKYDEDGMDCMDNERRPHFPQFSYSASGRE
Voltage-gated inwardly rectifying potassium channel KCNH2, sequence (Q12809 whole entry): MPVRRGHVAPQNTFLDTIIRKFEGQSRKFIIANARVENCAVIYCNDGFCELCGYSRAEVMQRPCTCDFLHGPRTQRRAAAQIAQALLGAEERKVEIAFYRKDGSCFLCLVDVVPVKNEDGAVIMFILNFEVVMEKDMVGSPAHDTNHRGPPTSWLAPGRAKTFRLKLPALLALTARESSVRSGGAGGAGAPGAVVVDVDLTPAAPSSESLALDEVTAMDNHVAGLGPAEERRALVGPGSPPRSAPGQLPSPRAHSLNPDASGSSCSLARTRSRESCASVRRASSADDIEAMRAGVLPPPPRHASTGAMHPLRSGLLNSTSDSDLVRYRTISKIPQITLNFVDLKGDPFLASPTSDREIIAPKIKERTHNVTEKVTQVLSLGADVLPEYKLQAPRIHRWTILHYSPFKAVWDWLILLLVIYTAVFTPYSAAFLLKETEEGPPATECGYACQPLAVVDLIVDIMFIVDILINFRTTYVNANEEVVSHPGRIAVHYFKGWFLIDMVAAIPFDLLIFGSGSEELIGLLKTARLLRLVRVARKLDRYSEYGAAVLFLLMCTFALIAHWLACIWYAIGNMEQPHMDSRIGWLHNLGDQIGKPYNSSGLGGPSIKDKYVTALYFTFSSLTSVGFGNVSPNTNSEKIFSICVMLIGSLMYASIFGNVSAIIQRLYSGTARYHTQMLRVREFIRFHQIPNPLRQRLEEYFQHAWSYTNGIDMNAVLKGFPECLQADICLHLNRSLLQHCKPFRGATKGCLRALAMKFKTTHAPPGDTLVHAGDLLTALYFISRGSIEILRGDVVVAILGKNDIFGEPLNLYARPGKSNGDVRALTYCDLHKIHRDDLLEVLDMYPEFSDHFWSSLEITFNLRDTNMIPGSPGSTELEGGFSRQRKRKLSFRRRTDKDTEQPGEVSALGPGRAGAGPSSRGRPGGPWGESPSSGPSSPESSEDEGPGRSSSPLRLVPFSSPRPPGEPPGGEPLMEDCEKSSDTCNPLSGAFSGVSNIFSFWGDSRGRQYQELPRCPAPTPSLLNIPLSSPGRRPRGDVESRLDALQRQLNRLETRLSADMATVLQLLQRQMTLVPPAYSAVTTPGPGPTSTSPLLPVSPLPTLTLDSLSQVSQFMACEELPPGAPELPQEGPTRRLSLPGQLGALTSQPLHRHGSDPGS

Compound | IC50 [8] | IC50 [9] | IC50 [10] | IC50 [11] | IC50 [13] | IC50 [14] | IC50 [15] | other results
O=C1N=CC=C2N=C(c3ccc(CN4CCC(c5n[nH]c(-c6ccccn6)n5)CC4)cc3)C(c3ccccc3)=CC12 (configuration not stated) | 3.5 nM | 42 nM | 16 nM | 266 nM | > 50000 nM | > 50000 nM | > 50000 nM | Activity (Mus musculus [1]): 41%; Activity (Mus musculus [2]): 86%; Activity (Mus musculus [3]): 91%; Activity (A2780): Active; inhibition in vivo at 50 mg/kg (Mus musculus [4]): 80%; inhibition in vivo at 50 mg/kg (Mus musculus [5]): 75%; inhibition in vivo at 50 mg/kg (Mus musculus [6]): 95%; inhibition in vivo at 50 mg/kg (Mus musculus [7]): 54%; IC50 [12]: 1900 nM; IC50 [16]: 5610 nM; logP [17]: 3.51; clearance [18]: 4.6 mL/min/kg; half-life [19]: 3.8 h; concentration at 10 h [20]: 13000 nM; concentration at 16 h [21]: 2600 nM; concentration at 24 h [22]: 700 nM; Activity (Mus musculus [23]): 21%; Activity (Mus musculus [24]): 62%; Activity (Mus musculus [25]): 100%; fraction unbound (Homo sapiens): 0.027
c1ccc(-c2nc3ccccc3nc2-c2ccc(CN3CCC(c4cc(-c5ccncc5)[nH]n4)CC3)cc2)cc1 | 75 nM | 1080 nM |  |  |  |  |  | logD [26]: 2.71; IC50 [12]: 11300 nM
c1ccc(-c2cc3ncccc3nc2-c2ccc(CN3CCC(c4n[nH]c(-c5ccccn5)n4)CC3)cc2)cc1 | 5.6 nM | 70 nM | 30 nM | 1480 nM | > 50000 nM | > 50000 nM | > 50000 nM | 
c1ccc(-c2cc3ccncc3nc2-c2ccc(CN3CCC(c4n[nH]c(-c5ccccn5)n4)CC3)cc2)cc1 | 21 nM | 160 nM | 31 nM | 981 nM | > 50000 nM | > 50000 nM | > 50000 nM | 
c1ccc(-c2cc3cccnc3nc2-c2ccc(CN3CCC(c4cc(-c5cccnc5)[nH]n4)CC3)cc2)cc1 | 250 nM | 900 nM |  |  | > 50000 nM | > 50000 nM | > 50000 nM | 
c1ccc(-c2cc3cccnc3nc2-c2ccc(CN3CCC(c4cc(-c5ccccn5)[nH]n4)CC3)cc2)cc1 | 44 nM | 280 nM | 149 nM | 995 nM | > 50000 nM | > 50000 nM | > 50000 nM | 
c1ccc(-c2cc(C3CCN(Cc4ccc(-c5nc6ncccc6cc5-c5ccccc5)cc4)CC3)n[nH]2)cc1 | 470 nM | 1600 nM |  |  | > 50000 nM | > 50000 nM | > 50000 nM | 
CCN(CC)CCNC(=O)c1ccc2nc(-c3ccccc3)c(-c3ccc(CN4CCC(n5c(=O)[nH]c6ccccc65)CC4)cc3)nc2c1 |  |  | 527 nM | 730 nM |  |  |  | 
O=c1ccc(-c2cc(C3CCN(Cc4ccc(-c5nc6ncccc6cc5-c5ccccc5)cc4)CC3)n[nH]2)c[nH]1 | 34 nM | 83 nM | 132 nM | 613 nM | > 50000 nM | > 50000 nM | > 50000 nM | 
c1ccc(-c2cc3cccnc3nc2-c2ccc(CN3CCC(c4n[nH]c(-c5ccccn5)n4)CC3)cc2)cc1 | 45 nM | 220 nM | 83 nM | 1080 nM | > 50000 nM | > 50000 nM | > 50000 nM | 
c1ccc(-c2cc3cccnc3nc2-c2ccc(CN3CCC(c4cc(-c5ccncc5)[nH]n4)CC3)cc2)cc1 | 120 nM | 260 nM | 369 nM | 1450 nM | > 50000 nM | > 50000 nM | > 50000 nM | 
c1ccc(-c2cc3cnccc3nc2-c2ccc(CN3CCC(c4n[nH]c(-c5ccccn5)n4)CC3)cc2)cc1 | 7.4 nM | 210 nM | 21 nM | 2680 nM | > 50000 nM | > 50000 nM | > 50000 nM | 
